1 compound from patent US20240415152A1, “METHODS FOR IMPROVING HEALTH OF FISH, USE OF ZINC OXIDE PARTICLES FOR THE PREPARATION OF FISH FEED, METHODS FOR PREPARING FISH FEED FOR FISH, AND FISH FEED THEREOF” (City University of Hong Kong, priority 2023, published 2024) can be followed below.

Holding throughout (type): in vivo, Trachinotus ovatus
Holding throughout (settings): dietary 60 mg/kg, 5 weeks

Assay [1] deals with intestinal tissue of fish. The assay can be described thus: In situ spatial quantitative analysis of intestinal tissue (HE sections, tissue cytometry). The protocol: After dietary exposure, all fish were starved for 24 h, and the ice-water was used to anesthetize fish from different groups. To avoid sample contamination during sampling, we first thoroughly disinfected the sampling table with 75% alcohol, and then spread a disposable tablecloth and disinfected it twice. All metal dissection tools were high-temperature sterilization. Each treatment group shared one set of dissection tools. After each set of samples, the disposable tablecloth was replaced and thoroughly sterilized for the following group sampling. The tubes (sterile and enzyme-free) for the temporary storage of samples were purchased from Corning. Inc. The alcohol lamp was kept on throughout the sampling process. Fish's weights were measured immediately. All individual fish per net were swabbed using 75% alcohol. After that, we used a 1 mL disposable syringe to collect the blood from the caudal vertebra of the fish. The blood was quickly drawn into the pre-cooled 1.5 mL-centrifuge tubes (RNA-free tube). Then, all the blood samples were put in the 4° C. refrigerator for 24 h, and then centrifuged (4° C., 3000 r/min, 10 min) to obtain the serum samples for biochemical analysis. The blood-drawn fish were quickly dissected to obtain the gill, intestine content, intestine, liver, and muscle. Each replicated sample contained 6 fish, resulting in 18 fish per treatment group (with 3 replicates). All these samples were immediately frozen in liquid nitrogen and transferred to −80° C. refrigerator using dry ice, except the intestine for histomorphological study. For histomorphological analysis of the intestine, the tissues (3 fish per treatment group) were firstly dissected in the medical ice sheet. After 0.9% NaCl solution quick washing, the intestine tissues were fixed in the 4% paraformaldehyde (BL539A, Biosharp) for 48 h. The fixed intestinal samples were carefully transferred to 75% alcohol for long-term preservation.
The fixed intestine tissues were removed from the fixed liquid and then carefully trimmed with the ventilation cupboard. The trimmed tissues with different labels were placed in the dehydration box in the dehydrator (Donatello, DIAPATH) to dehydrate with gradient alcohol. The process was as follows: 75% alcohol 4 h, 85% alcohol 2 h, 90% alcohol 2 h, 95% alcohol 1 h, anhydrous ethanol I 30 min, anhydrous ethanol II 30 min, alcohol benzene 5˜10 min, xylene II 5˜10 min, 65° C. melting paraffin I1 h, 65° C. melting paraffin II 1 h, 65° C. melting paraffin Ill 1 h. The tissues were removed from the dehydration box and placed in the embedding frame of the embedding machine (JB-P5, Wuhan Junjie Electronics Co., Ltd), subsequently the frozen platform at −20° C. was used to cool the dewatering box. The solidified wax block was removed from the embedded frame and placed on the pathology slicer (RM2016, Shanghai Leica Instrument Co., Ltd) to obtain 4 μm slice thickness. The tissues were then flattened when the slice floated on the 40° C. warm water of the spreading machine. […]
In situ spatial quantitative identification of HE sections were imaged and analyzed by tissue cytometry. Briefly, the images were obtained on the TissueFAXS quantitative imaging system (TissueGnostics, Vienna, Austria). […] The scanned files were imported into the strataquest professional organization single-cell quantitative analysis system (v.7.0.1.176) for image processing and analysis. […]

For assay [2], the system named is intestinal microorganism of golden pompano. The assay can be described thus: Bacterial 16S ribosomal RNA gene sequencing of intestine content (ASV-based). The text has this:
DNA samples from the intestine content (only mucosa without the muscularis) were isolated using the MP Fast® SPIN DNA Kit. Each replicated sample contained 6 fish, resulting in 18 fish per treatment group. DNA extracts were amplified using primers (338F_806R) for the V3-V4 region of the 16S rRNA gene. Procedures for the DNA extracts and PCR amplification and then illuminma Miseq sequencing are described as follows.
DNA extraction and PCR amplification: The quality of DNA extraction was determined using 1% agarose gel electrophoresis, and DNA concentration and purity were determined using NanoDrop2000. […] The 16S rRNA gene V3-V4 variable region was amplified by PCR using 338F (5′-[…]-3′) and 806R (5′-[…]-3′). The amplification procedure was as follows: 95° C. pre-denaturation for 3 min, 27 cycles (95° C. denaturation for 30 s, 55° C. annealing for 30 s, 72° C. extension for 30 s), followed by 72° C. stable extension for 10 min and finally storage at 4° C. (PCR instrument: ABI GeneAmp® Model 9700). FastPfu buffer 4 μL, 2.5 mM dNTPs 2 μL, upstream primer (5 uM) 0.8 μL, downstream primer (5 uM) 0.8 μL, TransStart FastPfu DNA polymerase 0.4 μL, template DNA 10 ng, ddH2O make up to 20 μL. 3 replicates for each sample.
Illumina Miseq sequencing: PCR products from the same sample were mixed and recovered using a 2% agarose gel. Fluorometer (Promega, USA) was used to quantify the recovered products. Library construction was performed using NEXTflex™ Rapid DNA-Seq Kit (Bioo Scientific, USA): (1) splice linkage; (2) removal of splice self-linked fragments using magnetic bead screening; (3) enrichment of library template using PCR amplification; (4) recovery of PCR products by magnetic beads to obtain the final library. Sequencing was performed using Illumina's Miseq PE300 platform (Shanghai Meiji Biomedical Technology Co., Ltd.).
For Illumina Miseq PE300, products were pooled by sequencing equimolar and paired-end sequences (2×300) to obtain the raw data. Please see description for raw data stitching and optimization. After the PE reads obtained by MiSeq sequencing were split, the double-ended reads were first quality controlled and filtered according to the sequencing quality. Meanwhile, according to the overlapping relationship between double-ended reads, the optimized data after quality control splicing were obtained. […]
Raw data stitching and optimization: Fastp (version 0.20.0) software was used for quality control of the original sequencing sequence, and flash was used (version 1.2.7) software for splicing: (1) filter the bases with a mass value of less than 20 at the tail of reads and set a 50 bp window. […]

A further assay concerns golden pompano. In words: Growth performance (final weight, weight gain rate) after 5-week dietary exposure. On the procedure: Fish exposure experiments were conducted in strict accordance with the Chinese Guidelines for Ethical Review of Laboratory Animal Welfare (GBIT 35892-2018). Three groups of golden pompanos (initial body wet weight of about 6 g) were randomly chosen and split after 14 days of acclimatization. There were three replicated net cages in Mirs Bay (Nanao, Shenzhen, China) for each group, with 30 fish in each duplicate. Each day, the experimental meals were given two-time (8:00 h, and 16:00 h) to golden pompano until satiation during the 5-week exposure experiment. The water was 29-32° C., dissolved oxygen 6.8-7.2 mg/L, and salinity 28-30‰ during dietary exposure.
After dietary exposure, all fish were starved for 24 h, and the ice-water was used to anesthetize fish from different groups. To avoid sample contamination during sampling, we first thoroughly disinfected the sampling table with 75% alcohol, and then spread a disposable tablecloth and disinfected it twice. All metal dissection tools were high-temperature sterilization. Each treatment group shared one set of dissection tools. After each set of samples, the disposable tablecloth was replaced and thoroughly sterilized for the following group sampling. The tubes (sterile and enzyme-free) for the temporary storage of samples were purchased from Corning. […] Fish's weights were measured immediately. […]

Turning to `O=S(=O)([O-])[O-].[Zn+2]` [ZnSO4, zinc sulphate], in assay [1], the intestinal villus area result is “reduced” and the “villus height distribution (changes in the fish villi intestine)” value is 0.05-0.33 μm. In addition, in assay [1] (compared with the other groups), the “area of basal layer of fish intestine” value is “reduced”, the “total number of goblet cells” value is on record as “reduced” and the “villus/crypt ratio (intestinal/crypt ratio)” value is on record as “reduced”. Besides, in assay [2], the “genus-level differential microorganisms in fish intestine” value was “significantly enriched Photobacterium and Mycoplasma”; the “main intestinal microorganisms at phylum level” value is “Proteobacteria, Firmicutes and Cyanobacteria”; the “unique reads of microorganisms at ASV level (Venn diagram)” value is 808; the “unique reads of microorganisms at genus level (Venn diagram)” value stood at 137. For the same compound, the “WGR (weight gain rate)” value in the assay on golden pompano came out at 268.78%. The final weight in the assay on golden pompano (initial body wet weight about 6 g) came out at 22.30 g.
